Reference: patent publication US20250186408A1, “TREATMENT OF PHARMACORESISTANT EPILEPSY” (Katholieke Universiteit Leuven, priority 2021, published 2025)
Like-named read-outs stand apart in the source and are kept apart here.

Key:
[1] = target: T1, EDNRA (Homo sapiens, UniProt P25101); assay: Calcium Flux EDNRA Agonist; type: cell-based; conditions: for EC50: read-out: RC50, result type EC50; for Emax: read-out: Max response
T1 sequence (P25101 21-427): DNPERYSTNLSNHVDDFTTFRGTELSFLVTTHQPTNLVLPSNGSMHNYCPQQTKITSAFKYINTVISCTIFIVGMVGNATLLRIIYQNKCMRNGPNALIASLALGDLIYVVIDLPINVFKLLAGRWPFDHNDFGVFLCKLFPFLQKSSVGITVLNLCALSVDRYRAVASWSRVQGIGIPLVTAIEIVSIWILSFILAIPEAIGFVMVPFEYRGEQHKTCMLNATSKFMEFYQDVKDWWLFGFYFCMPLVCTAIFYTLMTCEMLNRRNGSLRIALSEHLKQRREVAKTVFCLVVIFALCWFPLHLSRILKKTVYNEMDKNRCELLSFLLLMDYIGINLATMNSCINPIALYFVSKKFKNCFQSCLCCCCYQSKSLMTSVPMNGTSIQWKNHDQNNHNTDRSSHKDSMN
Experimental: (§1) (≤0.2% DMSO concentration). Assays were performed in 1× dye loading buffer consisting of 1× Dye (DiscoverX, Calcium No Wash^PLUS kit, Catalog No. 90-0091), 1× Additive A and 2.5 mM Probenecid in HBSS/20 mM HEPES. Probenecid was prepared fresh. Prior to testing, media was aspirated from cells and replaced with 25 μL dye loading buffer. Cells were incubated for 45 min at 37° C. and then 20 min at RT. For agonist determination, 25 μL of 2× compound in HBSS/20 mM HEPES was added using a FLIPR Tetra (MDS). […] 25 μL of 2× sample was added and cells were incubated for 30 min at RT in the dark to equilibrate plate temperature. After incubation, antagonist determination was initiated by addition of 25 μL of 1× compound with 3×EC80 agonist using FLIPR. For both agonist and antagonist formats, activity was measure on a FLIPR Tetra (MDS). Calcium mobilization was monitored for 2 min with a 5 sec baseline read.
(§2) FLIPR read—Area under the curve, was calculated for the entire 2 min read.

[2] = target: HTR2B (Homo sapiens, UniProt P41595); assay: Calcium Flux HTR2B Antagonist; conditions: for Emax: read-out: Max response
Sequence of HTR2B (P41595 whole entry): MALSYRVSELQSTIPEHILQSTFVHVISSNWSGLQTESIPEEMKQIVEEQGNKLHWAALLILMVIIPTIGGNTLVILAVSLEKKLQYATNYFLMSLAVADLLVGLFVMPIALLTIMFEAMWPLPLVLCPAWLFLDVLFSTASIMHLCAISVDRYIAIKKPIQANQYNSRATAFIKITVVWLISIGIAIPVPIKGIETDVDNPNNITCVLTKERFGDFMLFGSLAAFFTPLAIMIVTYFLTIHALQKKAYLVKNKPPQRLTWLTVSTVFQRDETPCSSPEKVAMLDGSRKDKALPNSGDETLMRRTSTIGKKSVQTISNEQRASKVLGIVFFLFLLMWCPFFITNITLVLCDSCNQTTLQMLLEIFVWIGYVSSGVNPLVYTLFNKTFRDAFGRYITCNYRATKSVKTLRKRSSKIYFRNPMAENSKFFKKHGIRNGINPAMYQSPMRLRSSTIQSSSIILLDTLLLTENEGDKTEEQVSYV
Experimental: (§3) In vitro pharmacological profiling of compounds was done against 78 functional assays for 47 common off-targets (30) by Eurofins DiscoverX Corporation (Fremont, CA, USA) using their SAFETYscan E/IC50 ELECT service (Cat Ref 87-1003DR, Safety47 Panel Dose Response). […] Compounds were tested in a range of 10 concentrations, following a 3-fold serial dilution, starting from 10 μM. The assays were performed utilizing the PathHunter enzyme fragment complementation (EFC) technology, FLIPR®-based cellular screening assays, and KINOMEscan kinase binding assays.
Prior to testing, cells (10,000 cells/well) were expanded from freezer stocks and seeded into a total volume of 50 μL into black walled, clear-bottom, Poly-D-lysine coated 384-well microplates and incubated at 37° C. […] Assays were performed in 1× dye loading buffer consisting of 1× Dye (DiscoverX, Calcium No Wash^PLUS kit, Catalog No. 90-0091), 1× Additive A and 2.5 mM Probenecid in HBSS/20 mM HEPES. Probenecid was prepared fresh. Prior to testing, media was aspirated from cells and replaced with 25 μL dye loading buffer. Cells were incubated for 45 min at 37° C. and then 20 min at RT. For agonist determination, 25 μL of 2× compound in HBSS/20 mM HEPES was added using a FLIPR Tetra (MDS). For antagonist determination, cells were pre-incubated with sample followed by agonist challenge at the EC80 concentration. 25 μL of 2× sample was added and cells were incubated for 30 min at RT in the dark to equilibrate plate temperature. After incubation, antagonist determination was initiated by addition of 25 μL of 1× compound with 3×EC80 agonist using FLIPR. For both agonist and antagonist formats, activity was measure on a FLIPR Tetra (MDS). Calcium mobilization was monitored for 2 min with a 5 sec baseline read.
FLIPR read—Area under the curve, was calculated for the entire 2 min read. Compound activity was analysed using CBIS data analysis suite (ChemInnovation, CA).

[3] = target: T1, EDNRA; assay: Calcium Flux EDNRA Antagonist; type: cell-based; conditions: for IC50: read-out: RC50, result type IC50; for Emax: read-out: Max response
Experimental: as §1, §2

[4] = target: OPRD1 (Homo sapiens, UniProt P41143); assay: cAMP OPRD1 Antagonist; conditions: for Emax: read-out: Max response
Sequence of OPRD1 (P41143 whole entry): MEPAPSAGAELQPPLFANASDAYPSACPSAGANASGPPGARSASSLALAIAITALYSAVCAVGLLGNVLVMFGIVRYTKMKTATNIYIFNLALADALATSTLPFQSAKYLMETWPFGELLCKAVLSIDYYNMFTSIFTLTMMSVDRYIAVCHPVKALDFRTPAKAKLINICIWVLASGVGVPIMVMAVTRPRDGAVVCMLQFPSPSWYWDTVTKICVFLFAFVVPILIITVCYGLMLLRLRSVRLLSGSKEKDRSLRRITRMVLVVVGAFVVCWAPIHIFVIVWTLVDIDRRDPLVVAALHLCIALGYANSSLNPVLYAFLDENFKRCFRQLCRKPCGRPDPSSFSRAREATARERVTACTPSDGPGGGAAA
Experimental: (§4) In vitro pharmacological profiling of compounds was done against 78 functional assays for 47 common off-targets (30) by Eurofins DiscoverX Corporation (Fremont, CA, USA) using their SAFETYscan E/IC50 ELECT service (Cat Ref 87-1003DR, Safety47 Panel Dose Response). […] Compounds were tested in a range of 10 concentrations, following a 3-fold serial dilution, starting from 10 μM.
(§5) cAMP Hunter cell lines were expanded from freezer stocks. Prior to testing, cells were seeded in a total volume of 20 μL into white walled 384-well microplates and incubated at 37° C. cAMP modulation was determined using the DiscoverX HitHunter cAMP XS+ assay. For Gs agonist determination, cells were incubated with sample to induce response. For Gi agonist determination, cells were incubated with sample in the presence of EC80 forskolin to induce response. For both conditions, media was aspirated from cells and replaced with 15 μL 2:1 HBSS/10 mM HEPES:cAMP XS+ Ab reagent. Intermediate dilution of sample stocks was performed to generate 4× sample in assay buffer (containing 4×EC80 forskolin in the case of antagonist determination). 5 μL of 4× sample was added to cells and incubated at 37° C. or room temperature (RT) for 30 or 60 min. Final assay vehicle concentration was 1%. For antagonist determination, cells were pre-incubated with sample followed by agonist challenge at the EC80 concentration. Media was aspirated from cells and replaced with 10 μL 1:1 HBSS/HEPES:cAMP XS+ Ab reagent. 5 μL of 4× compound was added to the cells and incubated at 37° C. or RT for 30 min. 5 μL of 4×EC80 agonist was added to the cells and incubated at 37° C. or RT for 30 or 60 min. For Gi coupled GPCRs, EC80 forskolin was included. […] Microplates were read following signal generation with a PerkinElmer Envision™ instrument for chemiluminescent signal detection. Compound activity was analyzed using CBIS data analysis suite (ChemInnovation, CA).

[5] = Intrinsic clearance (liver microsomes); type: in vitro ADME; conditions: pooled liver microsomes, pH 7.4, human liver microsomes
From the text: In vitro ADME profiling of compounds was done by Eurofins Panlabs Inc (St Charles, MO, USA) using their ADME-Tox service (Cat Ref P375, Tier 1 ADME Panel). […] (28). The atom-based log P calculation method, called OsirisP, uses as an increment system and adds contributions of every atom based on its atom type. The prediction engine distinguishes a total of 368 atom types and was optimized using a training set of more than 5000 molecules with experimentally determined log P values. The free prediction engine has proven to outperform many alternative calculation methods (29).
Metabolic stability of the test compounds was evaluated in pooled liver microsomes from human species. Test compounds were pre-incubated with liver microsomes in phosphate buffer (pH 7.4) in a 37° C. shaking water bath for 5 min and an NADPH-generating system was added to initiate the reaction. Samples were collected at time points of 0, 15, 30, 45 and 60 min and extracted with acetonitrile/methanol. After centrifugation, the supernatants were analysed by HPLC-MS/MS. T1/2 was calculated from the slope of the line obtained by plotting the natural logarithmic percentage (Ln %) of the test compound remaining in the reaction mixture vs. incubation time (min). CLint (μL/min/mg protein) was calculated from T1/2 using following equation: […]

[6] = target: OPRK1 (Homo sapiens, UniProt P41145); assay: cAMP OPRK1 Antagonist; conditions: for Emax: read-out: Max response
Sequence of OPRK1 (P41145 whole entry): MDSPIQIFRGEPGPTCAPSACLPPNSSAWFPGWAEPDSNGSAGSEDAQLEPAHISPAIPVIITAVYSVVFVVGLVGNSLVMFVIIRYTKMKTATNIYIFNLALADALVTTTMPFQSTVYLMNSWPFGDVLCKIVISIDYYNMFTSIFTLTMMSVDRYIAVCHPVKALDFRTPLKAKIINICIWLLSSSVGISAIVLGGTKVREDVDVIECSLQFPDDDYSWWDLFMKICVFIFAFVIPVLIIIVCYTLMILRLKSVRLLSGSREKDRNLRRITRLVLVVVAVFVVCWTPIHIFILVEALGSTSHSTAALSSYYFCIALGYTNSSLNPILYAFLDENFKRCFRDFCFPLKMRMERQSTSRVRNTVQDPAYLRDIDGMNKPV
Experimental: as §3
cAMP Hunter cell lines were expanded from freezer stocks. Prior to testing, cells were seeded in a total volume of 20 μL into white walled 384-well microplates and incubated at 37° C. cAMP modulation was determined using the DiscoverX HitHunter cAMP XS+ assay. For Gs agonist determination, cells were incubated with sample to induce response. For Gi agonist determination, cells were incubated with sample in the presence of EC80 forskolin to induce response. For both conditions, media was aspirated from cells and replaced with 15 μL 2:1 HBSS/10 mM HEPES:cAMP XS+ Ab reagent. Intermediate dilution of sample stocks was performed to generate 4× sample in assay buffer (containing 4×EC80 forskolin in the case of antagonist determination). 5 μL of 4× sample was added to cells and incubated at 37° C. or room temperature (RT) for 30 or 60 min. Final assay vehicle concentration was 1%. For antagonist determination, cells were pre-incubated with sample followed by agonist challenge at the EC80 concentration. Media was aspirated from cells and replaced with 10 μL 1:1 HBSS/HEPES:cAMP XS+ Ab reagent. 5 μL of 4× compound was added to the cells and incubated at 37° C. or RT for 30 min. 5 μL of 4×EC80 agonist was added to the cells and incubated at 37° C. or RT for 30 or 60 min. For Gi coupled GPCRs, EC80 forskolin was included. […] Microplates were read following signal generation with a PerkinElmer Envision™ instrument for chemiluminescent signal detection. Compound activity was analyzed using CBIS data analysis suite (ChemInnovation, CA). For Gs agonist mode assays, percentage activity was calculated using the following equation:

[7] = target: HRH2 (Homo sapiens, UniProt P25021); assay: cAMP HRH2 Antagonist; type: cell-based; conditions: for Emax: read-out: Max response
Sequence of HRH2 (P25021 whole entry): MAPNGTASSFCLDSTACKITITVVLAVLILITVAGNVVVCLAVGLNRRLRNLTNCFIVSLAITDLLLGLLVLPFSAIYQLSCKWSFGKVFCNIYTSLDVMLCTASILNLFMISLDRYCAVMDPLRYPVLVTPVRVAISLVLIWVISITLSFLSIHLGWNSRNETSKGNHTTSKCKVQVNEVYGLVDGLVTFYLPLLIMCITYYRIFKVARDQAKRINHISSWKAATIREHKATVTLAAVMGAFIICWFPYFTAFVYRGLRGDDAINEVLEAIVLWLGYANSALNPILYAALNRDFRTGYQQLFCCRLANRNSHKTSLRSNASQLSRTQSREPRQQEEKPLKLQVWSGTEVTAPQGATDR
Experimental: cAMP Hunter cell lines were expanded from freezer stocks. […] For Gi agonist determination, cells were incubated with sample in the presence of EC80 forskolin to induce response. For both conditions, media was aspirated from cells and replaced with 15 μL 2:1 HBSS/10 mM HEPES:cAMP XS+ Ab reagent. […] 5 μL of 4× sample was added to cells and incubated at 37° C. or room temperature (RT) for 30 or 60 min. Final assay vehicle concentration was 1%. […] Media was aspirated from cells and replaced with 10 μL 1:1 HBSS/HEPES:cAMP XS+ Ab reagent. […] For Gi coupled GPCRs, EC80 forskolin was included. […] Compound activity was analyzed using CBIS data analysis suite (ChemInnovation, CA).

[8] = system: EKP-induced epileptiform discharges in zebrafish larvae; assay: Zebrafish EKP seizure model, electrophysiology (non-invasive LFP recordings, PSD analysis); type: in vivo, zebrafish (Danio rerio); conditions: 7 dpf larvae; for effect on EKP-induced elevated PSD (in words): 22 h; for efficacy against EKP-induced epileptiform discharges 2 μM / efficacy against EKP-induced epileptiform discharges 10 μM: 22 h incubation, mean, normalized PSD 20-90 Hz
Experimental: Non-invasive LFP recordings were measured from the midbrain (optic tectum) of 7 dpf zebrafish larvae pre-incubated with VHC only, EKP only, or compound and EKP. […] These steps occurred at 28° C., while further manipulation and electrophysiological recordings occurred at room temperature (±21° C.) and were performed as described before (16, 27). Each recording lasted 600 seconds.
A power spectral density (PSD) analysis of the recordings was performed using MatLab R2019 software (MATrix LABoratory, USA) as described in (26). The PSD estimate of each LFP recording was summed over each 10 Hz frequency band, ranging from 0 to 160 Hz. Next, the PSD estimates were normalized against the VHC control. Data are expressed as mean±SEM PSD per larva and per condition over the 20-90 Hz region. Outliers were identified via the ROUT test (Q=1%).
PSD analysis assumes that the epileptiform activity manifests as a high-power oscillation at certain frequencies (26). Thus, if epileptic activity occurs often during the recording an elevated PSD estimate should be found at the corresponding frequency band(s) (26).

[9] = target: DRD1 (Homo sapiens, UniProt P21728); assay: cAMP DRD1 Antagonist; conditions: for Emax: read-out: Max response
Sequence of DRD1 (P21728 whole entry): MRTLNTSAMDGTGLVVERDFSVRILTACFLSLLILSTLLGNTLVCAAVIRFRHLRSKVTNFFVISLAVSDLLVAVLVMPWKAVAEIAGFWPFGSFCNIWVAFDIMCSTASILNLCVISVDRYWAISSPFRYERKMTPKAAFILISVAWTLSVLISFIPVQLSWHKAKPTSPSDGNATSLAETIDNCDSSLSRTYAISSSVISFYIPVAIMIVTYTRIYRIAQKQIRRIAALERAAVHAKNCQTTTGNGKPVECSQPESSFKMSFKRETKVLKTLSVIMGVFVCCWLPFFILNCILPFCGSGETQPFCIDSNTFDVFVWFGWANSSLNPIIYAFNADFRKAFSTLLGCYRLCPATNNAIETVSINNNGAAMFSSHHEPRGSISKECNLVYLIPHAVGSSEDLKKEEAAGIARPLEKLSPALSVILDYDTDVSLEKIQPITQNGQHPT
Experimental: as §4, §5

[10] = target: HRH1 (Homo sapiens, UniProt P35367); assay: Calcium Flux HRH1 Antagonist; type: cell-based; conditions: for Emax: read-out: Max response
Sequence of HRH1 (P35367 whole entry): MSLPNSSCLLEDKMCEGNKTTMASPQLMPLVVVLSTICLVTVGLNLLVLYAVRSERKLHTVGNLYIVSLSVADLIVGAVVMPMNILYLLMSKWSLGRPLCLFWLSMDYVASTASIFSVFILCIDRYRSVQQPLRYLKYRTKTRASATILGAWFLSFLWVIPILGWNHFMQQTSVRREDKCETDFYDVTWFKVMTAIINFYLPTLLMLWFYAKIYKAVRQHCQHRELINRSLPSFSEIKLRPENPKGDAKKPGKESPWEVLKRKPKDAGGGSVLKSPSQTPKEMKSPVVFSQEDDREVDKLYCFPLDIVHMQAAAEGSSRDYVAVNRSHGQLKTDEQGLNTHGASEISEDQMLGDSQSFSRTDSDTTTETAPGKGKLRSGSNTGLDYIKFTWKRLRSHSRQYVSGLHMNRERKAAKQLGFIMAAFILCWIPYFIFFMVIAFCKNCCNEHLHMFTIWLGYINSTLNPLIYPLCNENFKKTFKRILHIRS
Experimental: as §1, §2

[11] = target: GABAA (Homo sapiens, UniProt P14867+P18507+P47870); assay: Ion Channel GABAA Blocker; type: cell-based; conditions: read-out: Max response
Sequence of GABAA (P14867 28-456): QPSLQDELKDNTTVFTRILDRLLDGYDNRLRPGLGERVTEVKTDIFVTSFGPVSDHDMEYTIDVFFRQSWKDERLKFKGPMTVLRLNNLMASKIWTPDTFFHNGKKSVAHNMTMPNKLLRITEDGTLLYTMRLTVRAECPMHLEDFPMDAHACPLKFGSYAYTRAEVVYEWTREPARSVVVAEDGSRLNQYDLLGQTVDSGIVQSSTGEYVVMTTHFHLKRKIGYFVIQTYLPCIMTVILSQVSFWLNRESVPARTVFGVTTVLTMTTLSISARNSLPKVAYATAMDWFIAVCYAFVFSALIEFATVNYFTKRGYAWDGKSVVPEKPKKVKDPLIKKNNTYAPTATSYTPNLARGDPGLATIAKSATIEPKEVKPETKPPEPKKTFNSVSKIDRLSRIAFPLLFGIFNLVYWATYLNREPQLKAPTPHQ
Sequence of GABAA (P47870 26-512): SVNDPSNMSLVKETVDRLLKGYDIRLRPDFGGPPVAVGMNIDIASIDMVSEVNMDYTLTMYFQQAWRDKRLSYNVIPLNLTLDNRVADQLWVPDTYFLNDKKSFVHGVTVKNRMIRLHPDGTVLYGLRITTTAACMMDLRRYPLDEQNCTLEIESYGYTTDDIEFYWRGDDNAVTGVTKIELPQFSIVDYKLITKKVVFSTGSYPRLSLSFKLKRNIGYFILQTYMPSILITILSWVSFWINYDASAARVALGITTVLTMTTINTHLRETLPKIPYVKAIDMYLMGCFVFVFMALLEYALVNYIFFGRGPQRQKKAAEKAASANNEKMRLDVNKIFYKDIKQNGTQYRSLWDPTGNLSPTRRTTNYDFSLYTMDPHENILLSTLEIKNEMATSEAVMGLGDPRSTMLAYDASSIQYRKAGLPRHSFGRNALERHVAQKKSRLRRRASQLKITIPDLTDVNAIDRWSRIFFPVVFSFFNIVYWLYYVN
Sequence of GABAA (P18507 40-475): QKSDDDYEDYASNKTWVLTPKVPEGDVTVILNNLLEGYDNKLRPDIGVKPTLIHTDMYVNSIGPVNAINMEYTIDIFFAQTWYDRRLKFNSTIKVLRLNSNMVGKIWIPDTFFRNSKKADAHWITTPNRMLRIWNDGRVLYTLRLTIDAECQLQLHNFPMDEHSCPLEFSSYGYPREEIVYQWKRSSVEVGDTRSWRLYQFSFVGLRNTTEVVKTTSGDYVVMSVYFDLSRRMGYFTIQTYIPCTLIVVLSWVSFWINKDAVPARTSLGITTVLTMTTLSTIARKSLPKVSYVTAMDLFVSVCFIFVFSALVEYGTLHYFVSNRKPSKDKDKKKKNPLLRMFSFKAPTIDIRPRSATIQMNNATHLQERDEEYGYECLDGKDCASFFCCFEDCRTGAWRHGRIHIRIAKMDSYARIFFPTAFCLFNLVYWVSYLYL

[12] = target: KvLQT1/minK (Homo sapiens, UniProt P51787); assay: Ion Channel KvLQT1/minK Blocker; type: cell-based; conditions: for Emax: read-out: Max response

Structure (SMILES): CC(C)(C)c1ccc(C#CC(O)c2ccccc2)cc1 (racemic) [Compound 3.3, rac-3-(4-(tert-butyl)phenyl)-1-phenylprop-2-yn-1-ol]
- EC50 ([1]; Calcium Flux EDNRA Agonist): > 10 µM
- Emax [1]: 0%
- IC50 [2]: > 10 µM
- Emax [2]: 0%
- IC50 ([3]; Calcium Flux EDNRA Antagonist): > 10 µM
- Emax [3]: 0%
- IC50 [4]: > 10 µM
- Emax [4]: 5.9%
- half-life at 100 nM [5]: 19 min
- microsomal CLint at 100 nM [5]: 381 µL/min/mg
- IC50 [6]: > 10 µM
- Emax [6]: 8.9%
- IC50 [7]: > 10 µM
- Emax [7]: 2.7%
- effect on EKP-induced elevated PSD (in words) ([8]; 2 μM): remained effective
- efficacy against EKP-induced epileptiform discharges 2 μM ([8]; 2 μM): 54%
- effect on EKP-induced elevated PSD (in words) ([8]; 10 μM): significant decrease
- efficacy against EKP-induced epileptiform discharges 10 μM ([8]; 10 μM): 82%
- IC50 [9]: > 10 µM
- Emax [9]: 2.7%
- IC50 [10]: > 10 µM
- Emax [10]: 0%
- Emax [11]: 8.7%
- IC50 [12]: > 10 µM
- Emax [12]: 47.5%

Structure (SMILES): Clc1cccc(C#Cc2n[nH]c3ncccc23)c1 [Compound 10.1, 3-((3-chlorophenyl)ethynyl)-1H-pyrazolo[3,4-b]pyridine]
- Emax ([1]; Calcium Flux EDNRA Agonist): 1.8%
- EC50 ([1]; Calcium Flux EDNRA Agonist): > 10 µM
- IC50 [2]: > 10 µM
- Emax [2]: 8.8%
- Emax ([3]; Calcium Flux EDNRA Antagonist): 0%
- IC50 ([3]; Calcium Flux EDNRA Antagonist): > 10 µM
- IC50 [4]: > 10 µM
- Emax [4]: 0%
- half-life at 100 nM [5]: 10 min
- microsomal CLint at 100 nM [5]: 748 µL/min/mg
- IC50 [6]: > 10 µM
- Emax [6]: 0%
- Emax ([7]; cAMP HRH2 Antagonist): 13.9%
- IC50 ([7]; cAMP HRH2 Antagonist, read-out: RC50, result type IC50): > 10 µM
- effect on EKP-induced elevated PSD (in words) ([8]; 2 μM): did not
- efficacy against EKP-induced epileptiform discharges 2 μM ([8]; 2 μM): −30%
- effect on EKP-induced elevated PSD (in words) ([8]; 10 μM): significant decrease
- efficacy against EKP-induced epileptiform discharges 10 μM ([8]; 10 μM): 77%
- IC50 [9]: > 10 µM
- Emax [9]: 17.2%
- Emax ([10]; Calcium Flux HRH1 Antagonist): 1%
- IC50 ([10]; Calcium Flux HRH1 Antagonist, read-out: RC50, result type IC50): > 10 µM
- Emax [11]: 5.2%
- Emax ([12]; Ion Channel KvLQT1/minK Blocker): 0%
- IC50 ([12]; Ion Channel KvLQT1/minK Blocker, read-out: RC50, result type IC50): > 10 µM
